From PMC7493682, “Caffeine Targets SIRT3 to Enhance SOD2 Activity in Mitochondria” (Frontiers in Cell and Developmental Biology, 2020)

Target: T1, SIRT3 (Homo sapiens, UniProt Q9NTG7)
T1 sequence (Q9NTG7 102-399): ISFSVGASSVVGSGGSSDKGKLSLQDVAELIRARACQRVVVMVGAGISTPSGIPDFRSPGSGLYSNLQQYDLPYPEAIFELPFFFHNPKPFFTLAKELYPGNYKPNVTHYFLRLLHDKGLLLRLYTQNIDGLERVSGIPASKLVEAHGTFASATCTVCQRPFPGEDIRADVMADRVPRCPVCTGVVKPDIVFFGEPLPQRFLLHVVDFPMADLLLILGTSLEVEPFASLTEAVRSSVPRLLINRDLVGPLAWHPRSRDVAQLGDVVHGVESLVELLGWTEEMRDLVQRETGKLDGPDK
Assay: SPR (Biacore S200, immobilized SIRT3); also BLI (KD […]) and activation of the pure enzyme
Format: binding

Cn1c(=O)c2c(ncn2C)n(C)c1=O [Caffeine, 1,3,7-trimethylxanthine]
Kd: 686 nM
